From PMC7560867, “Unique dynamic mode between Artepillin C and human serum albumin implies the characteristics of Brazilian green propolis representative bioactive component” (Scientific Reports, 2020)

Target: T1, Human serum albumin (HSA) (Homo sapiens, UniProt P02768)
T1 construct: gene ALB
Test: intrinsic fluorescence quenching, excitation […] nm, emission […] nm
Assay type: binding
Settings: 295 K, PBS pH 7.4, 0.5 uM HSA, no warfarin; double-log; n 0.8430; quenching described as dynamic; Sudlow's site I (IIA)

T1 sequence (P02768 25-609): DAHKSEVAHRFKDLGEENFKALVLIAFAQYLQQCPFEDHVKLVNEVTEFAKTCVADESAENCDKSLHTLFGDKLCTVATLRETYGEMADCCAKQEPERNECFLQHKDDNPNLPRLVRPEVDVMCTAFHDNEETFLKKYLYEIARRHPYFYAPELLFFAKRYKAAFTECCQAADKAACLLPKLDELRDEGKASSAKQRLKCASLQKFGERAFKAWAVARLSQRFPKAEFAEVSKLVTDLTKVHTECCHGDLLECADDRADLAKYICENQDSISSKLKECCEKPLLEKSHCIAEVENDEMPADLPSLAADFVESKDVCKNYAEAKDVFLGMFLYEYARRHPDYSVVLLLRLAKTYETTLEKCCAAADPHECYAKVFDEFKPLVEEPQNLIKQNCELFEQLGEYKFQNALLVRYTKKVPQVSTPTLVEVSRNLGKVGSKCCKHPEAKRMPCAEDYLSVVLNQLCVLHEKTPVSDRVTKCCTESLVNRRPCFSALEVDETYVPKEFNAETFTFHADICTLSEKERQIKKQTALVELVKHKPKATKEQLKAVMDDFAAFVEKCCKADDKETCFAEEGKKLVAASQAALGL

CC(C)=CCc1cc(/C=C/C(=O)O)cc(CC=C(C)C)c1O [Artepillin C, 3,5-diprenyl-4-hydroxycinnamic acid] was tested, and the “KA” value was 908000 L/mol.
